Like-named read-outs stand apart in the source and are kept apart here.

For one data set, the system named is KKA^y mice. Briefly: Hypoglycemic and hypolipidemic (hypotriglyceridemic) actions in mice. The format is in vivo. The conditions noted are these: Mus musculus, po, 96 h, 0.01% in powdery diet, four days. On the procedure: Hypoglycemic and Hypolipidemic (Hypotriglyceridemic) Actions in Mice
Test compounds were mixed in a powdery diet (CE-2, Japan Clea) at the concentration of 0.01%, and freely given to KKA^y mice (11 to 12 weeks old, 5 mice per group), a model of type 2 diabetes mellitus, for four days. During this period, water was given freely. Blood was sampled from orbital venous plexus, and glucose and triglyceride levels in plasma separated from the blood were determined enzymatically using L type Wako Glu2 (Wako Pure Chemical Industries, Ltd.) or L type Wako TG.H (Wako Pure Chemical Industries, Ltd.), respectively.
In the Table, “hypoglycemic action (%)” represents a percent reduction (%) of the blood glucose level in the treatment group when the blood glucose level in the non-treatment group is taken as 100%. In addition, “hypolipidemic action (%)” represents a percent reduction (%) of the blood triglyceride level in the treatment group when the blood triglyceride level in the non-treatment group is taken as 100%.

[1] abbreviates: percent reduction of blood glucose level vs non-treatment group (100%), read-out: Hypoglycemic action (%).
The mark [2] stands for this setting: percent reduction of blood triglyceride level vs non-treatment group (100%), read-out: Hypolipidemic action (%).

Turning to `Cn1cc(CC(=O)O)c(OCc2ccc(OCc3csc(-c4ccccc4)n3)nc2)n1` [Example 34, [1-methyl-3-[6-(2-phenyl-4-thiazolylmethoxy)-3-pyridylmethoxy]-1H-pyrazol-4-yl]acetic acid], the melting point lay in the range of 156 to 157 °C.
Regarding `COc1cc(COc2cc(CC(=O)O)n(-c3ccccc3)n2)ccc1OCc1nc(-c2ccco2)oc1C` [Example 77, [3-[4-[2-(2-furyl)-5-methyl-4-oxazolylmethoxy]-3-methoxybenzyloxy]-1-phenyl-1H-pyrazol-5-yl]acetic acid], the melting point is 145 to 146 °C (dec.).
Same read-out and setting: the figure for `Cc1oc(-c2ccco2)nc1COc1ccc(Cc2nc(CCC(=O)O)c(-c3ccccc3)o2)cc1` [Example 67, 3-[2-[4-[2-(2-furyl)-5-methyl-4-oxazolylmethoxy]benzyl]-5-phenyl-4-oxazolyl]propionic acid] is 154 to 155 °C.
As to `Cc1oc(-c2ccccc2)nc1COc1cc(COc2nn(C)cc2CC(=O)O)on1` [Example 30, [1-methyl-3-[3-(5-methyl-2-phenyl-4-oxazolylmethoxy)-5-isoxazolylmethoxy]-1H-pyrazol-4-yl]acetic acid], the melting point lay in the range of 149 to 150 °C.
The same measure, in the same setting: the value for `COc1cc(COc2cc(CCC(=O)O)n(-c3ccccc3)n2)ccc1OCc1nc(-c2ccccc2)oc1C` [Example 79, 3-[3-[3-methoxy-4-(5-methyl-2-phenyl-4-oxazolylmethoxy)benzyloxy]-1-phenyl-1H-pyrazol-5-yl]propionic acid] was 157 to 158 °C; that for `Cc1oc(-c2ccccc2)nc1COc1ccc(COc2nn(Cc3ccccc3)cc2CCC(=O)O)cc1` [Example 20, 3-[1-benzyl-3-[-4-(5-methyl-2-phenyl-4-oxazolylmethoxy)benzyloxy]-1H-pyrazol-4-yl]propionic acid] was 125 to 126 °C.
`Cc1oc(-c2ccccc2)nc1COc1ccc(Sc2nc(CC(=O)O)cs2)cc1` [Example 19, [2-[4-(5-methyl-2-phenyl-4-oxazolylmethoxy)phenylthio]-4-thiazolyl]acetic acid]: the melting point was 180 to 181 °C.
As to `Cc1oc(-c2ccccc2)nc1COc1ccc(COc2nn(Cc3ccccc3)cc2CC(=O)O)cc1` [Example 44, [1-benzyl-3-[4-(5-methyl-2-phenyl-4-oxazolylmethoxy)benzyloxy]-1H-pyrazol-4-yl]acetic acid], the melting point was 91 to 92 °C. For the same compound, the inhibition in vivo at 0.01 % in diet in the data set on KKA^y mice (setting [1]) was determined as 53%. The inhibition in vivo at 0.01 % in diet with KKA^y mice (setting [2]) was found to be 68%.
`Cc1oc(-c2ccccc2)nc1COc1ccc(CCc2oc(-c3ccccc3)nc2CCC(=O)O)cc1` [Example 65, 3-[5-[2-[4-(5-methyl-2-phenyl-4-oxazolyl)methoxyphenyl]ethyl]-2-phenyl-4-oxazolyl]propionic acid]: the melting point fell in the range of 110 to 111 °C.
The same measure, in the same setting: the figure for `Cn1cc(CC(=O)O)c(OCc2cc(OCc3ccc4ccccc4n3)no2)n1` [Example 32, [1-methyl-3-[3-(2-quinolylmethoxy)-5-isoxazolylmethoxy]-1H-pyrazol-4-yl]acetic acid] is 124 to 125 °C; for `Cc1oc(-c2ccccc2)nc1COc1ccc(CSc2nc(CCC(=O)O)n[nH]2)cc1` [Example 18, 3-[5-[4-(5-methyl-2-phenyl-4-oxazolylmethoxy)benzylthio]-1H-1,2,4-triazol-3-yl]propionic acid] it is 170 to 171 °C; for `COc1cc(COc2nn(-c3ccccc3)cc2CC(=O)O)ccc1OCc1nc(-c2ccco2)oc1C` [Example 73, [3-[4-[2-(2-furyl)-5-methyl-4-oxazolylmethoxy]-3-methoxybenzyloxy]-1-phenyl-1H-pyrazol-4-yl]acetic acid] it is 179 to 180 °C.
On to `Cc1oc(-c2ccccc2)nc1COc1cc(COc2nn(C)cc2CC(=O)O)ccn1` [Example 28, [1-methyl-3-[2-(5-methyl-2-phenyl-4-oxazolylmethoxy)-4-pyridylmethoxy]-1H-pyrazol-4-yl]acetic acid], for which the melting point fell in the range of 126 to 127 °C.
Same read-out and setting: the figure for `Cc1oc(-c2ccccc2)nc1COc1ccc(COc2nn(Cc3ccccc3)cc2CCC(=O)O)cn1` [Example 48, 3-[1-benzyl-3-[6-(5-methyl-2-phenyl-4-oxazolylmethoxy)-3-pyridylmethoxy]-1H-pyrazol-4-yl]propionic acid] is 130 to 131 °C; for `Cc1oc(-c2ccccc2)nc1COc1ccc(CN(C)c2nc(-c3ccccc3)c(CCC(=O)O)s2)cc1.Cl` it is 106 to 108 °C; for `COc1cc(COc2nn(C)cc2CC(=O)O)ccc1OCc1nc(-c2ccccc2)oc1C` [Example 42, [3-[3-methoxy-4-(5-methyl-2-phenyl-4-oxazolylmethoxy)benzyloxy]-1-methyl-1H-pyrazol-4-yl]acetic acid] it is 153 to 154 °C.
`Cc1oc(-c2ccco2)nc1COc1ccc(Cc2nc(-c3ccccc3)c(CCC(=O)O)o2)cc1` [Example 69, 3-[2-[4-[2-(2-furyl)-5-methyl-4-oxazolylmethoxy]benzyl]-4-phenyl-5-oxazolyl]propionic acid] displayed a melting point of 74 to 76 °C.
Compound `Cc1oc(-c2ccccc2)nc1COc1ccc(COc2cc(CCC(=O)O)n(-c3ccccc3)n2)cc1` [Example 81, 3-[3-[4-(5-methyl-2-phenyl-4-oxazolylmethoxy)benzyloxy]-1-phenyl-1H-pyrazol-5-yl]propionic acid] returned a melting point of 154 to 155 °C.
In the case of `Cc1oc(-c2ccccc2)nc1COc1ccc(COc2nn(C)cc2CC(=O)O)cc1` [Example 24, [1-methyl-3-[4-(5-methyl-2-phenyl-4-oxazolylmethoxy)benzyloxy]-1H-pyrazol-4-yl]acetic acid], the melting point fell in the range of 133 to 134 °C. Also, the inhibition in vivo at 0.01 % in diet in the data set with KKA^y mice (setting [1]) was 50%. For the same compound, the inhibition in vivo at 0.01 % in diet with KKA^y mice (setting [2]) worked out at 22%.
Consider `Cc1sc(-c2ccccc2)nc1COc1ccc(COc2nn(C)cc2CC(=O)O)cn1` [Example 36, [1-methyl-3-[6-(5-methyl-2-phenyl-4-thiazolylmethoxy)-3-pyridylmethoxy]-1H-pyrazol-4-yl]acetic acid], for which the melting point fell in the range of 140 to 141 °C.
The same measure, in the same setting: the figure for `COC(=O)Cc1cn(-c2ccccc2)nc1OCc1ccc(OCc2nc(-c3ccccc3)oc2C)nc1` [Example 53, methyl [3-[6-(5-methyl-2-phenyl-4-oxazolylmethoxy)-3-pyridylmethoxy]-1-phenyl-1H-pyrazol-4-yl]acetate] is 96 to 97 °C.
Compound `Cc1oc(-c2ccccc2)nc1CCOc1ccc(COc2nn(C)cc2CC(=O)O)cc1` [Example 22, [1-methyl-3-[4-[2-(5-methyl-2-phenyl-4-oxazolyl)ethoxy]benzyloxy]-1H-pyrazol-4-yl]acetic acid] showed a melting point of 148 to 149 °C.
On the same count and under the same terms, the figure for `Cc1oc(-c2ccccc2)nc1COc1cccc(COc2cc(CCC(=O)O)n(-c3ccccc3)n2)c1` [Example 83, 3-[3-[3-(5-methyl-2-phenyl-4-oxazolylmethoxy)benzyloxy]-1-phenyl-1H-pyrazol-5-yl]propionic acid] is 137 to 138 °C.
In turn, `COc1cc(COc2nn(Cc3ccccc3)cc2CC(=O)O)ccc1OCc1nc(-c2ccccc2)oc1C` [Example 46, [1-benzyl-3-[3-methoxy-4-(5-methyl-2-phenyl-4-oxazolylmethoxy)benzyloxy]-1H-pyrazol-4-yl]acetic acid] displayed a melting point of 99 to 100 °C. In addition, in the data set on KKA^y mice (setting [1]), the inhibition in vivo at 0.01 % in diet worked out at 54%. Further, the inhibition in vivo at 0.01 % in diet in the data set with KKA^y mice (setting [2]) stood at 56%.
Turning to `COc1cc(COc2nn(-c3ccccc3)cc2CCC(=O)O)ccc1OCc1nc(-c2ccco2)oc1C` [Example 56, 3-[3-[4-[2-(2-furyl)-5-methyl-4-oxazolylmethoxy]-3-methoxybenzyloxy]-1-phenyl-1H-pyrazol-4-yl]propionic acid], the melting point fell in the range of 161 to 162 °C.
The same measure, in the same setting: the figure for `COC(=O)Cc1cn(-c2ccccc2)nc1OCc1ccc(OCc2nc(-c3ccccc3)oc2C)c(OC)c1` [Example 51, methyl [3-[3-methoxy-4-(5-methyl-2-phenyl-4-oxazolylmethoxy)benzyloxy]-1-phenyl-1H-pyrazol-4-yl]acetate] is 107 to 108 °C; for `COc1cc(COc2nn(-c3ccccc3)cc2CC(=O)N2CCOCC2)ccc1OCc1nc(-c2ccco2)oc1C` [Example 74, 4-[3-[4-[2-(2-furyl)-5-methyl1–4-oxazolylmethoxy]-3-methoxybenzyloxy]-1-phenyl-1H-pyrazol-4-yl]acetylmorpholine] it is 132 to 133 °C.
